Laboratory results reported in patent US8574563B2 (Bristol-Myers Squibb Company, priority 2006, dated 2013).
Where two headings read alike, the source gives them in different places.

System: HCV 1b-377-neo replicon cells
Test: HCV replicon assay, HCV 1b-377-neo replicon cells (1b FRET)
Format: cell-based, Hepatitis C virus genotype 1b
Settings: HCV 1b-377-neo replicon cells, HCV 1b genotype, read-out: EC50 range against HCV 1b (Table 2, Range)
In short: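 FRET-based replicon assay in HCV 1b-377-neo cells, including a comparison line carrying the NS5A Y2065H mutation that confers resistance to a reference compound.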

Molecule | EC50 (Hepatitis C virus) [nM] | EC50 [nM]
COC(=O)N[C@@H](CC(=O)N1CCC[C@H]1c1ncc(-c2ccc(-c3ccc(-c4cnc([C@@H]5CCCN5C(=O)C[C@@H](Cc5ccsc5)NC(=O)OC)[nH]4)cc3)cc2)[nH]1)Cc1ccsc1 [cj-137, dimethyl (4,4′-biphenyldiylbis(1H-imidazole-5,2-diyl(2S)-2,1-pyrrolidinediyl((2R)-4-oxo-1-(3-thienyl)-4,2-butanediyl)))biscarbamate] | 1 to 99 | –
COC(=O)N[C@@H](CC(=O)N1CCC[C@H]1c1ncc(-c2ccc(-c3ccc(-c4cnc([C@@H]5CCCN5C(=O)C[C@@H](Cc5cccs5)NC(=O)OC)[nH]4)cc3)cc2)[nH]1)Cc1cccs1 [cj-138, dimethyl (4,4′-biphenyldiylbis(1H-imidazole-5,2-diyl(2S)-2,1-pyrrolidinediyl((2S)-4-oxo-1-(2-thienyl)-4,2-butanediyl)))biscarbamate] | 1000 to 10000 | –
COC(=O)N[C@@H]1CCCC[C@H]1C(=O)N1CCC[C@H]1c1ncc(-c2ccc(-c3ccc(-c4cnc([C@@H]5CCCN5C(=O)[C@@H]5CCCC[C@H]5NC(=O)OC)[nH]4)cc3)cc2)[nH]1 [cj-139, dimethyl (4,4′-biphenyldiylbis(1H-imidazole-5,2-diyl(2S)-2,1-pyrrolidinediylcarbonyl(1R,2R)-2,1-cyclohexanediyl))biscarbamate] | 1 to 99 | –
CN(C)CC[C@H](NC(=O)OC(C)(C)C)C(=O)N1CCC[C@H]1c1ncc(-c2ccc(-c3ccc(-c4cnc([C@@H]5CCCN5C(=O)[C@H](CCN(C)C)NC(=O)OC(C)(C)C)[nH]4)cc3)cc2)[nH]1 [cj-140, di-tert-butyl (4,4′-biphenyldiylbis(1H-imidazole-5,2-diyl(2S)-2,1-pyrrolidinediyl((2S)-4-(dimethylamino)-1-oxo-1,2-butanediyl)))biscarbamate] | 100 to 999 | –
COC(=O)N[C@@H]1CCCC[C@@H]1C(=O)N1CCC[C@H]1c1ncc(-c2ccc(-c3ccc(-c4cnc([C@@H]5CCCN5C(=O)[C@H]5CCCC[C@H]5NC(=O)OC)[nH]4)cc3)cc2)[nH]1 [cj-141, dimethyl (4,4′-biphenyldiylbis(1H-imidazole-5,2-diyl(2S)-2,1-pyrrolidinediylcarbonyl(1R,2S)-2,1-cyclohexanediyl))biscarbamate] | 1000 to 10000 | –
CN(C)CC[C@H](N)C(=O)N1CCC[C@H]1c1ncc(-c2ccc(-c3ccc(-c4cnc([C@@H]5CCCN5C(=O)[C@@H](N)CCN(C)C)[nH]4)cc3)cc2)[nH]1 [cj-142, (3S,3′S)-4,4′-(4,4′-biphenyldiylbis(1H-imidazole-5,2-diyl(2S)-2,1-pyrrolidinediyl))bis(N~1~,N~1~-dimethyl-4-oxo-1,3-butanediamine)] | 1000 to 10000 | –
COC(=O)N[C@@H](CC(=O)N1CCC[C@H]1c1ncc(-c2ccc(-c3ccc(-c4cnc([C@@H]5CCCN5C(=O)C[C@@H](Cc5ccccc5)NC(=O)OC)[nH]4)cc3)cc2)[nH]1)Cc1ccccc1 [cj-143, dimethyl (4,4′-biphenyldiylbis(1H-imidazole-5,2-diyl(2S)-2,1-pyrrolidinediyl((2R)-4-oxo-1-phenyl-4,2-butanediyl)))biscarbamate] | 1000 to 10000 | –
COC(=O)N[C@@H]1CC[C@H](C(=O)N2CCC[C@H]2c2ncc(-c3ccc(-c4ccc(-c5cnc([C@@H]6CCCN6C(=O)[C@H]6CC[C@@H](NC(=O)OC)C6)[nH]5)cc4)cc3)[nH]2)C1 [cj-144, dimethyl (4,4′-biphenyldiylbis(1H-imidazole-5,2-diyl(2S)-2,1-pyrrolidinediylcarbonyl(1R,3S)-3,1-cyclopentanediyl))biscarbamate] | 0.001 to 0.999 | –
COC(=O)N[C@H](Cc1ccccc1)C(=O)N1CCC[C@H]1c1ncc(-c2ccc(-c3ccc(-c4cnc([C@@H]5CCCN5C(=O)[C@@H](Cc5ccccc5)NC(=O)OC)[nH]4)cc3)cc2)[nH]1 [cj-145, methyl ((1R)-1-benzyl-2-((2S)-2-(5-(4′-(2-((2S)-1-((2R)-2-((methoxycarbonyl)amino)-3-phenylpropanoyl)-2-pyrrolidinyl)-1H-imidazol-5-yl)-4-biphenylyl)-1H-imidazol-2-yl)-1-pyrrolidinyl)-2-oxoethyl)carbamate] | 1 to 99 | –
COC(=O)N[C@@H](CCN(C)C)C(=O)N1CCC[C@H]1c1ncc(-c2ccc(-c3ccc(-c4cnc([C@@H]5CCCN5C(=O)[C@H](CCN(C)C)NC(=O)OC)[nH]4)cc3)cc2)[nH]1 [cj-146, dimethyl (4,4′-biphenyldiylbis(1H-imidazole-5,2-diyl(2S)-2,1-pyrrolidinediyl((2S)-4-(dimethylamino)-1-oxo-1,2-butanediyl)))biscarbamate] | 100 to 999 | –
CN(C)[C@H](Cc1ccccc1)C(=O)N1CCC[C@H]1c1ncc(-c2ccc(-c3ccc(-c4cnc([C@@H]5CCCN5C(=O)[C@@H](Cc5ccccc5)N(C)C)[nH]4)cc3)cc2)[nH]1 [cj-147, (2R,2′R)-1,1′-(4,4′-biphenyldiylbis(1H-imidazole-5,2-diyl(2S)-2,1-pyrrolidinediyl))bis(N,N-dimethyl-1-oxo-3-phenyl-2-propanamine)] | 1 to 99 | –
COC(=O)N[C@@H](Cc1ccccc1)C(=O)N1CCC[C@H]1c1ncc(-c2ccc(-c3ccc(-c4cnc([C@@H]5CCCN5C(=O)[C@H](Cc5ccccc5)NC(=O)OC)[nH]4)cc3)cc2)[nH]1 [cj-148, methyl ((1S)-1-benzyl-2-((2S)-2-(5-(4′-(2-((2S)-1-((2S)-2-((methoxycarbonyl)amino)-3-phenylpropanoyl)-2-pyrrolidinyl)-1H-imidazol-5-yl)-4-biphenylyl)-1H-imidazol-2-yl)-1-pyrrolidinyl)-2-oxoethyl)carbamate] | 1 to 99 | –
COC(=O)N[C@H]1CC[C@@H](C(=O)N2CCC[C@H]2c2ncc(-c3ccc(-c4ccc(-c5cnc([C@@H]6CCCN6C(=O)[C@H]6CC[C@@H](NC(=O)OC)CC6)[nH]5)cc4)cc3)[nH]2)CC1 [cj-150, dimethyl (4,4′-biphenyldiylbis(1H-imidazole-5,2-diyl(2S)-2,1-pyrrolidinediylcarbonylcis-4,1-cyclohexanediyl))biscarbamate] | 1 to 99 | –
COC(=O)N[C@H]1CC[C@H](C(=O)N2CCC[C@H]2c2ncc(-c3ccc(-c4ccc(-c5cnc([C@@H]6CCCN6C(=O)[C@H]6CC[C@H](NC(=O)OC)CC6)[nH]5)cc4)cc3)[nH]2)CC1 [cj-151, dimethyl (4,4′-biphenyldiylbis(1H-imidazole-5,2-diyl(2S)-2,1-pyrrolidinediylcarbonyltrans-4,1-cyclohexanediyl))biscarbamate] | 1 to 99 | –
CCN(CC)[C@H]1CC[C@@H](C(=O)N2CCC[C@H]2c2ncc(-c3ccc(-c4ccc(-c5cnc([C@@H]6CCCN6C(=O)[C@H]6CC[C@@H](N(CC)CC)CC6)[nH]5)cc4)cc3)[nH]2)CC1 [cj-152] | 1 to 99 | –
COC(=O)N[C@@H](Cc1cscn1)C(=O)N1CCC[C@H]1c1ncc(-c2ccc(-c3ccc(-c4cnc([C@@H]5CCCN5C(=O)[C@H](Cc5cscn5)NC(=O)OC)[nH]4)cc3)cc2)[nH]1 [cj-153, methyl ((1S)-2-((2S)-2-(5-(4′-(2-((2S)-1-((2S)-2-((methoxycarbonyl)amino)-3-(1,3-thiazol-4-yl)propanoyl)-2-pyrrolidinyl)-1H-imidazol-5-yl)-4-biphenylyl)-1H-imidazol-2-yl)-1-pyrrolidinyl)-2-oxo-1-(1,3-thiazol-4-ylmethyl)ethyl)carbamate] | 0.001 to 0.999 | –
COC(=O)N[C@@H](Cc1cn(Cc2ccccc2)cn1)C(=O)N1CCC[C@H]1c1ncc(-c2ccc(-c3ccc(-c4cnc([C@@H]5CCCN5C(=O)[C@H](Cc5cn(Cc6ccccc6)cn5)NC(=O)OC)[nH]4)cc3)cc2)[nH]1 [cj-154, methyl ((1S)-2-((2S)-2-(5-(4′-(2-((2S)-1-((2S)-3-(1-benzyl-1H-imidazol-4-yl)-2-((methoxycarbonyl)amino)propanoyl)-2-pyrrolidinyl)-1H-imidazol-5-yl)-4-biphenylyl)-1H-imidazol-2-yl)-1-pyrrolidinyl)-1-((1-benzyl-1H-imidazol-4-yl)methyl)-2-oxoethyl)carbamate] | 0.001 to 0.999 | –
COC(=O)N[C@H]1CCC[C@@H]1C(=O)N1CCC[C@H]1c1ncc(-c2ccc(-c3ccc(-c4cnc([C@@H]5CCCN5C(=O)[C@H]5CCC[C@@H]5NC(=O)OC)[nH]4)cc3)cc2)[nH]1 [cj-155, dimethyl (4,4′-biphenyldiylbis(1H-imidazole-5,2-diyl(2S)-2,1-pyrrolidinediylcarbonyl(1S,2S)-2,1-cyclopentanediyl))biscarbamate] | 1 to 99 | –
COCC[C@H](NC(=O)OC)C(=O)N1CCC[C@H]1c1ncc(-c2ccc(-c3ccc(-c4cnc([C@@H]5CCCN5C(=O)[C@H](CCOC)NC(=O)OC)[nH]4)cc3)cc2)[nH]1 [cj-156, methyl ((1S)-3-methoxy-1-(((2S)-2-(5-(4′-(2-((2S)-1-(N-(methoxycarbonyl)-O-methyl-L-homoseryl)-2-pyrrolidinyl)-1H-imidazol-5-yl)-4-biphenylyl)-1H-imidazol-2-yl)-1-pyrrolidinyl)carbonyl)propyl)carbamate] | 0.001 to 0.999 | –
(1R)-N,N-dimethyl-2-((2S)-2-(5-(4′-(2-((2S)-1- ((2R)-2-(4-morpholinyl)-2-phenylacetyl)-2- pyrrolidinyl)-1H-imidazol-5-yl)-4-biphenylyl)- 1H-imidazol-2-yl)-1-pyrrolidinyl)-2-oxo-1- phenylethanamine [Example 89] | – | 0.001 to 0.999
methyl (2-((2S)-2-(5-(4′-(2-((2S)-1-((2R)-2- (dimethylamino)-2-phenylacetyl)-2- pyrrolidinyl)-1H-imidazol-5-yl)-4-biphenylyl)- 1H-imidazol-2-yl)-1-pyrrolidinyl)-2- oxoethyl)carbamate [Example 91] | – | 0.001 to 0.999
methyl ((1R)-2-((2S)-2-(5-(4′-(2-((2S)-1-(3- benzoylbenzyl)-2-pyrrolidinyl)-1H- imidazol-5-yl)-4-biphenylyl)-1H-imidazol-2- yl)-1-pyrrolidinyl)-2-oxo-1- phenylethyl)carbamate [Example 84-34] | – | 1 to 99
